# Experimental data from patent publication US20060229255A1, “Identification of n-alkylglycine trimers for induction of apoptosis” (priority 2003, published 2006).
# How the values were obtained:
# HT29 cells = assay: Annexin V-FITC detection assay; type: cell-based, human; settings: HT29, 35 μM, 40 h treatment
# Procedure: Annexin V assay. Treated cells were harvested with EDTA 0.02% in Hank's Balanced Salt Solution (HBSS), washed in HBSS then in PBS (phosphate buffered saline) containing 1% BSA (Bovine serum albumine) and finally resuspended in Annexin V incubation buffer (10 mM HEPES 7.4; 140 mM NaCl; 2.5 mM CaCl2) containing 1% BSA. 10^5 cells were incubated with 5 μl Annexin-V-FITC (Bender MedSystems) for 1 h at room temperature and in the dark. Dead cells were stained with Propidium Iodide (PI) at 2 μg/ml. The analysis was immediately performed by flow cytometry.
# FIG. 5. Detection of early apoptosis. Annexin V assay after 40 h of treatment with DMSO (right panel), N13-13-10C, 35 µM (central panel), or Taxol, 11 nM (left panel). HT29 treated cells were stained with Annexin V-FITC and PI and subjected to flow cytometry. Fluorescence dot blots of annexin V positive (vertical axis) and PI positive (horizontal axis, logarithmic values) cells are shown. Cell distribution expressed as percentage of the population is indicated: early apoptotic cells in quadrant 1, Q1 (AnV+/IP−); dead cells in Q2 (AnV+/IP+); living cells in Q3 (AnV−/IP−); necrotic cells in Q4 (AnV−/IP+).
# JNK = assay: Western blot with JNK-phosphorylation specific antibody; type: cell-based, human; settings: HT29 cells
# Procedure: Western blotting. Floating and adherent cells were harvested and pellets were resuspended in RIPA buffer (50 mM Tris/HCl 7.4, 250 mM NaCl, 0,5% Igepal CA630, 5 mM EDTA, 1 mM PMSF, 10 μg/ml leupeptin, 50 mM NaF, 0.1 mM Na3VO4) or Deoxycholate buffer (10 mM phosphate buffer 7.4, […] NaCl, 0.5% Deoxycholate, 1% Igepal, 0.1% SDS, 1 mM PMSF). Protein concentration was determined with BCA Protein Assay Kit (Pierce) for RIPA extracts or Bradford assay (BioRad) for Deoxycholate extracts. Total protein (20-30 μg/lane) were separated by SDS-PAGE, transferred to PVDF membranes (Gellman), and probed with antibodies against Bcl-xL (Transduction); Bax (Santa Cruz); JNK (Santa Cruz); phospho-JNK (Cell Signaling); pRb (Pharmingen); pRb-phospho Ser780 (Cell Signalling); p130 (Santa Cruz); p107 (Santa Cruz); Cdk2 (Santa Cruz); p27^Kip1 (Santa Cruz); p21^Cip1 (Santa Cruz); actin (Sigma); or tubulin (ICN) and developed with ECL system (AmershamPharmacia biotech)
# FIG. 6. (A) JNK is activated after N13-13-10C treatment. HT29 cells were treated for 1, 3, 6 and 24 h with N13-13-10C (35 μM), harvested and immunoblotted to assess activation of SAP/JNK MAP kinase. Western blot was first probed with the JNK-phosphor specific antibody, was stripped and reprobed with the pan-JNK antibody and actin to normalize total protein level. […]
structure (smiles),measurement,setting,value
COc1ccc(CCNCC(=O)N(CCc2ccc(OC)cc2)CC(=O)N(CCc2ccccc2)CC(N)=O)cc1 [N13-13-10C],"Early apoptotic cells (IP negative, Annexin V positive)",HT29 cells,14%
same,Increase of early apoptotic cells with respect to control cells,HT29 cells,3.5 fold
same,Time of JNK activation (phosphorylation),JNK,3 to 6 h
